Experimental data from US20220125877A1, “METHOD FOR TREATING COLORECTAL CANCER” (SUN YAT-SEN UNIVERSITY, priority 2019, published 2022).

Columns and labels:
[1] = tested on: KRAS (G13D) mutation SW48 cell line; test: Azacitidine treatment: MATE1 expression and anti-proliferation effect of metformin; format: cell-based, human; settings: FIGS. 16E-F
LoVo cells = test: as above; format: cell-based, human; settings: FIGS. 16E-F

What does the source list for Nc1ncn([C@@H]2O[C@H](CO)[C@@H](O)[C@H]2O)c(=O)n1 [azacitidine]?
expression of MATE1 [1]: up-regulate the expression of MATE1; effect on the anti-tumor proliferation effect of metformin ([1]; with metformin): inhibiting the anti-tumor proliferation effect of metformin; expression of MATE1 (LoVo cells): up-regulate the expression of MATE1; effect on the anti-tumor proliferation effect of metformin (LoVo cells; with metformin): inhibiting the anti-tumor proliferation effect of metformin
